Legend:
ESET/SETDB1 = experiment: Screening with Tet-inducible ESET/SETDB1 cell line (dot blot analysis, FIG. 1); format: cell-based; details: among 107 selected library compounds
Method: In order to find compounds that inhibit the ESET/SETDB1 enzyme, 107 compounds expected to inhibit the activity of ESET/SETDB1 were selected through structural modeling from a compound library. These compounds were screened using a Tet-inducible ESET cell line.
Tet-Inducible ESET (H3K9 Specific Histone Methyltransferase) Cell Line (Tetracycline-Inducible ESET Cells):
A Tet-inducible ESET cell line was prepared using the T-REx™ system available from Invitrogen. The myc-ESET gene was subcloned into pcDNA5/TO and transfected into somatic mother cells (STHdh^Q7/7, striatal cells) using pcDNA6/TR.
Confocal Microscopy for Determination of H3K9me3 (Confocal Microscopy for Identification of Change in Heterochromatin Condensation by H3K9Me3 and Drug)
An indirect fluorescence labeling method using fluorescein-conjugated secondary antibodies was used. After fixing ESET inducible cells with 4% PFA and incubating with H3K9me3 (rabbit antibody; dilution, 1:200; Millipore) primary antibodies, the cells were incubated with fluorescence-conjugated secondary antibodies (Alexa 594; dilution, 1:400; Thermo). Images were obtained using a confocal microscope (IX2-DSU, Olympus, Tokyo, Japan).
Among those compounds, #7 compound was a quinolone derivative, which is selected as a hit-compound through the instant experiment. The #7 compound in FIG. 1 is Compound 8 in the present invention.

ESET/SETDB1 enzyme = target: T1, ESET/SETDB1 enzyme (Homo sapiens, UniProt Q15047); experiment: SETDB1 chemiluminescence enzyme assay (BPS Bioscience kit); format: biochemical; details: test compound 1-100 μM, FIG. 2
T1 construct: purchased BPS Bioscience
Method: In order to investigate the inhibitory effect against the activity of the ESET/SETDB1 enzyme of the compounds according to the present disclosure, SETDB1 chemiluminescence assay was conducted for the compound 8. The SETDB1 assay was performed using the SetDB1 chemiluminescent assay kit (BPS Bioscience) according to the manufacturer's protocol. S-Adenosylmethionine (SAM, stock concentration 20 μM) was used as a […]. First, SAM and the test compounds were prepared to final concentrations of 1 μM, 3 μM, 10 μM, 30 μM and 100 μM by diluting with DMSO (final volume 1 μL). 150 μL of a TBST buffer (1X TBS, pH 8.0, containing 0.05% Tween-20) was added to each well of a 96-well plate and hydrated at room temperature for 15 minutes. A master mix containing an assay buffer, the compound 8 and the SETDB1 enzyme was prepared.
25 μL (7.5 μL 4×HMT buffer+2.5 μL 20 μM SAM+15 μL H2O) of the prepared master mix was added to each well of the plate. Then, 1 μL of the test compound (1 μM, 3 μM, 10 μM, 30 μM or 100 μM) and 20 μL of the diluted SetDB1 enzyme were added sequentially. […] Chemiluminescence resulting from the reaction between the HRP-conjugated secondary antibody and the added HRP substrate was measured using a chemiluminescence reader (Molecular Devices microplate reader) and the result was analyzed using the SoftMax Pro software.

transgenic YAC128 mouse = experiment: Rotarod performance test in YAC128 animal model; format: in vivo; details: 15-month-old male YAC128 mice, 0.636 mg/kg for 3 weeks, 5 days a week, 5 rpm, compared to the vehicle, FIG. 3
Method: The effect of the compound according to the present disclosure on motor ability was evaluated using the transgenic YAC128 mouse which expresses the human Huntingtin gene containing 128 CAG repeat sequences as a model of Huntington's disease (HD) (Menalled L et al., 2009, Neurobiol Dis 35(3):319-36). The Huntington's disease model mouse is reported to show decline in motor ability, which is the typical pathological symptom of Huntington's disease, from 6 around months after birth, progress of neurodegeneration from 9 months and aggregation of mutant Huntington's genes in striatal neurons from around 18 months.
Rotarod performance test was conducted using 15-month-old male YAC128 mice. The drug was administered (0.636 mg/kg) for 3 weeks, 5 days a week, and the rotarod test was performed on the 5th day of each week.
The mouse was placed on a rotating rod (4 cm in diameter) and riding time was measured. The experiment was performed 4 times on the same day and 60 seconds was given to each mouse. The rotarod rotation speed was set to 5 rpm. The period of time until the mouse fell to the ground was measured. When the mouse remained longer than 60 seconds on the rod, the riding time was recorded as 60 seconds. The recorded time was statistically analyzed and was used as an indicator of the motor ability and balance of the mouse.

[1] = system: trimethylation of H3K9 (H3K9me3); experiment: Change in H3K9 trimethylation in brain of YAC128 mouse; format: in vivo; details: striatal brain tissue of YAC128 mouse, anti-H3K9me3 blot, FIGS. 4A and 4B
Method: After adding the striatal brain tissue of YAC128 mouse to 1 mL of PBS containing 0.4 mM sodium butyrate, 5% Triton X-100, 3 mM DTT, 1 mM sodium orthovanadate, 5 mM sodium fluoride, 3 mM PMSF, 0.5 mg/mL leupeptin and 10 mg/mL aprotinin, a cell homogenate was obtained using a Downce crusher. After centrifugation at 3000 rpm for 10 minutes, the supernatant was removed. The precipitating cell pellet was washed twice with a 5% Triton buffer and histone was extracted with 0.2 M HCl. After neutralizing the histone-containing solution to neutral pH with 1 N NaOH, proteins were quantitated and separated by 15% SDS-PAGE. The change in trimethylation of H3K9 (H3K9me3) was investigated using anti-H3K9me3 (rabbit antibody; dilution, 1:1000; Millipore).

trimethylation of H3K9 (H3K9me3) (ESET/SETDB1 enzyme)	Compound	inhibitory effect against ESET/SETDB1 (ESET/SETDB1)	riding time on the rod (transgenic YAC128 mouse)	intensity of trimethylated H3K9 [1]
	C=CCNc1cccc2nc(N3CCCCC3)ccc12 [Compound 4, 2-(piperidin-1-yl)-N-allylquinolin-5-amine]	significant inhibitory effect		
remarkably decreased	C=CCOc1cccc2nc(N3CCCC3)ccc12 [Compound 8, 5-allyloxy-2-(pyrrolidin-1-yl)quinoline]	significant inhibitory effect	remarkably increased	remarkably decreased
	C=CCOc1cccc2nc(Nc3ccccc3)ccc12 [Compound 11, 5-allyloxy-N-phenylquinolin-2-amine]	significant inhibitory effect		

Reference: patent US20170354650A1, “QUINOLINE DERIVATIVES FOR INHIBITING HISTONE METHYLTRANSFERASES AND USE THEREOF” (KOREA INSTITUTE OF SCIENCE AND TECHNOLOGY, priority 2016, published 2017)
